Data taken from the CheMixHub ionic liquid set.
Several values for one entry are separate records, joined by “and”; a condition that tells them apart may be missing. Equal values may be shown once.

Assay: xn = mol fraction of the nth substance listed

CC(=O)[O-].CCCC[N+]1(C)CCCC1 + O
298.15 K, 101.3 kPa, frequency 100 MHz
Details	electrical conductivity [S/m]
x1 = 0.017	2.62
x1 = 0.163	0.985

CC(=O)[O-].CCCC[N+](CCCC)(CCCC)CCCC + CCCCCCCCCCCC[N+](C)(C)C.[Br-] + O
viscosity [mPa·s], 100 kPa
Details	x2 = 5.421e-05, x1 = 0.0001802	x2 = 0.0001084, x1 = 0.0001801	x2 = 0.0001626, x1 = 0.0001801	x2 = 0.0002168, x1 = 0.0001801	x2 = 0.000271, x1 = 0.0001801	x2 = 0.0003252, x1 = 0.0001801	x2 = 0.0003793, x1 = 0.0001801	x2 = 0.0004335, x1 = 0.0001801	x2 = 0.0004877, x1 = 0.0001801	x2 = 0.0005418, x1 = 0.0001801
293.15 K	1.029	1.031	1.032	1.033	1.034	1.034	1.035	1.035	1.035	1.035
298.15 K	0.916	0.919	0.92	0.922	0.924	0.926	0.928	0.929	0.93	0.931
303.15 K	0.808	0.81	0.813	0.816	0.817	0.82	0.82	0.82	0.822	0.821
308.15 K	0.724	0.726	0.727	0.729	0.729	0.73	0.731	0.731	0.732	0.732
313.15 K	0.657	0.659	0.662	0.664	0.665	0.667	0.667	0.668	0.669	0.669
318.15 K	0.607	0.607	0.609	0.61	0.611	0.613	0.613	0.617	0.618	0.619

C[S+](C)C.O=S(=O)([N-]S(=O)(=O)C(F)(F)F)C(F)(F)F + O=C1CCCO1
Details	electrical conductivity [S/m]
298.15 K, 101 kPa, x2 = 0.92	1.57

COP(=O)([O-])OC.Cn1cc[n+](C)c1 + CCCO
101 kPa
Details	viscosity [mPa·s]
293.15 K, x2 = 0.3018	116.9
298.15 K, x2 = 0	291
303.15 K, x2 = 0.1993	115.9
303.15 K, x2 = 0.5002	34.18
303.15 K, x2 = 0.5996	21.48
308.15 K, x2 = 0.1993	90.1
313.15 K, x2 = 0.5996	15.82
318.15 K, x2 = 0.098	74.8
318.15 K, x2 = 0.4	30.15
318.15 K, x2 = 0.5002	20.5
323.15 K, x2 = 0.3018	33.41
323.15 K, x2 = 0.5996	12.11
323.15 K, x2 = 0.799	4.88

CC(C)[C@H](N)C(=O)O + CC[n+]1ccn(C)c1.O=S(=O)([O-])O + O
viscosity [mPa·s], 100 kPa
Details	x1 = 0.0003621, x2 = 0	x1 = 0.0007257, x2 = 0	x1 = 0.001091, x2 = 0	x1 = 0.001447, x2 = 0	x1 = 0.001793, x2 = 0	x1 = 0.002246, x2 = 0	x1 = 0.002701, x2 = 0
293.15 K	1.023	1.043	1.064	1.084	1.103	1.128	1.154
298.15 K	0.899	0.907	0.916	0.924	0.931	0.941	0.952
303.15 K	0.805	0.812	0.82	0.827	0.835	0.844	0.854
308.15 K	0.727	0.734	0.742	0.749	0.756	0.765	0.774
313.15 K	0.66	0.666	0.673	0.679	0.686	0.694	0.703

CCCCCCCCCCCCCCCC[n+]1ccccc1.O=C([O-])C(O)c1ccccc1 + NCC(=O)O + O
electrical conductivity [S/m], 101 kPa
Details	293.15 K	298.15 K	303.15 K	308.15 K	313.15 K
x1 = 1.08e-06, x2 = 0	0.00061	0.00068	0.00076	0.00083	0.0009
x1 = 1.09e-06, x2 = 0.001799	0.00103	0.00118	0.0013	0.0015	0.0017
x1 = 1.26e-06, x2 = 0.0009002	0.00083	0.00094	0.00106	0.0012	0.0013
x1 = 1.98e-06, x2 = 0	0.001	0.0012	0.0013	0.0014	0.0016
x1 = 2.17e-06, x2 = 0.001799	0.00151	0.00172	0.0019	0.0022	0.0024
x1 = 2.35e-06, x2 = 0.0009002	0.00125	0.00142	0.0016	0.0018	0.0019
x1 = 2.88e-06, x2 = 0	0.00147	0.0016	0.0018	0.002	0.0022
x1 = 3.26e-06, x2 = 0.001799	0.00188	0.0022	0.0024	0.0027	0.003
x1 = 3.43e-06, x2 = 0.0009002	0.00163	0.00185	0.0021	0.0023	0.0025
x1 = 3.96e-06, x2 = 0	0.0019	0.0022	0.0024	0.0026	0.0029
x1 = 4.35e-06, x2 = 0.001799	0.00233	0.00265	0.0029	0.0033	0.0036
x1 = 4.52e-06, x2 = 0.0009002	0.00209	0.00237	0.0026	0.0029	0.0032
x1 = 4.69e-06, x2 = 0	0.0023	0.0026	0.0029	0.0031	0.0035
x1 = 5.26e-06, x2 = 0.001799	0.00273	0.00308	0.0034	0.0038	0.0042
x1 = 5.78e-06, x2 = 0.0009002	0.00258	0.00291	0.0032	0.0036	0.004
x1 = 5.95e-06, x2 = 0	0.00281	0.0032	0.0035	0.0038	0.0042
x1 = 6.52e-06, x2 = 0.001799	0.0032	0.00363	0.004	0.0045	0.005
x1 = 7.05e-06, x2 = 0.0009002	0.00305	0.00343	0.0038	0.0042	0.0046
x1 = 7.21e-06, x2 = 0	0.00341	0.0038	0.0042	0.0046	0.0051
x1 = 8.16e-06, x2 = 0.001799	0.00379	0.00429	0.0048	0.0053	0.0059
x1 = 8.31e-06, x2 = 0.0009002	0.00355	0.00401	0.0045	0.0049	0.0054
x1 = 8.83e-06, x2 = 0	0.00406	0.0046	0.005	0.0055	0.006
x1 = 9.79e-06, x2 = 0.001799	0.00435	0.00491	0.0055	0.0061	0.0068
x1 = 9.94e-06, x2 = 0.0009002	0.00404	0.00455	0.0051	0.0056	0.0063
x1 = 1.045e-05, x2 = 0	0.00469	0.0053	0.0058	0.0065	0.0071
x1 = 1.124e-05, x2 = 0.001799	0.00472	0.00536	0.006	0.0067	0.0075
x1 = 1.138e-05, x2 = 0.0009002	0.00443	0.00502	0.00561	0.0062	0.007
x1 = 1.207e-05, x2 = 0	0.00516	0.0058	0.0064	0.0071	0.0079
x1 = 1.269e-05, x2 = 0.001799	0.00515	0.00581	0.0065	0.0073	0.0081
x1 = 1.283e-05, x2 = 0.0009002	0.00481	0.00543	0.00607	0.0068	0.0076
x1 = 1.351e-05, x2 = 0	0.00562	0.00631	0.007	0.0077	0.0085
x1 = 1.41e-05, x2 = 0.0009002	0.00512	0.0058	0.00647	0.0072	0.008
x1 = 1.414e-05, x2 = 0.001799	0.00553	0.00625	0.007	0.0078	0.0087
x1 = 1.478e-05, x2 = 0	0.00603	0.0068	0.0075	0.0083	0.0092
x1 = 1.54e-05, x2 = 0.001799	0.00584	0.0066	0.0074	0.0083	0.0092
x1 = 1.554e-05, x2 = 0.0009002	0.0055	0.00621	0.0069	0.0077	0.0086
x1 = 1.622e-05, x2 = 0	0.00644	0.0072	0.008	0.0089	0.0098
x1 = 1.667e-05, x2 = 0.001799	0.00618	0.00697	0.0078	0.0087	0.0097
x1 = 1.681e-05, x2 = 0.0009002	0.0058	0.00657	0.0073	0.0082	0.0091
x1 = 1.766e-05, x2 = 0	0.00687	0.0077	0.0085	0.0094	0.0104

C[S+](C)C.O=S(=O)([N-]S(=O)(=O)C(F)(F)F)C(F)(F)F + CC#N
101 kPa
Details	electrical conductivity
264.85 K, x2 = 0.87	3.61 S/m
273.15 K, x2 = 0.87	4.06 S/m
298.15 K, x1 = 0.0001	0.027 S/m and 0.059 S/m
298.15 K, x1 = 0.0005	0.208 S/m
323.15 K, x2 = 0.87	6.94 S/m

CCCCn1cc[nH+]c1.O=S(=O)([N-]S(=O)(=O)C(F)(F)F)C(F)(F)F + N
313.2 K, 101 kPa
Details	viscosity [mPa·s]
x1 = 0.2924	9.9
x1 = 0.337	12.9
x1 = 0.4007	19.3
x1 = 0.4495	24.3
x1 = 0.477	27.7
x1 = 0.4904	29.1
x1 = 0.575	38.7
x1 = 0.6515	45.8
x1 = 0.7028	51.3
x1 = 0.7906	54.5
x1 = 0.8999	52.5
x1 = 1	47.2

COP(=O)([O-])OC.Cn1cc[n+](C)c1 + CCCO + O
100 kPa
Details	viscosity [mPa·s]
298.15 K, x2 = 0.249, x3 = 0.2451	90
323.15 K, x2 = 0.15, x3 = 0.1498	81
333.15 K, x2 = 0.1, x3 = 0.0998	85
